Legend:
Format in all cases: functional, cell-based
NCI-H719 = test: cells; conditions: Homo sapiens
Description: SANGER: Inhibition of human NCI-H719 cell growth in a cell viability assay.

LC-1F = test: cells; conditions: Homo sapiens
Description: SANGER: Inhibition of human LC-1F cell growth in a cell viability assay.

TUR = test: cells; conditions: Homo sapiens
Description: SANGER: Inhibition of human TUR cell growth in a cell viability assay.

NCI-H322M = test: cells; conditions: Homo sapiens
Description: SANGER: Inhibition of human NCI-H322M cell growth in a cell viability assay.

HCC1599 = test: cells; conditions: Homo sapiens
Description: SANGER: Inhibition of human HCC1599 cell growth in a cell viability assay.

EB2 = test: cells; conditions: Homo sapiens
Description: SANGER: Inhibition of human EB2 cell growth in a cell viability assay.

LP-1 = test: cells; conditions: Homo sapiens
Description: SANGER: Inhibition of human LP-1 cell growth in a cell viability assay.

NCI-H1694 = test: cells; conditions: Homo sapiens
Description: SANGER: Inhibition of human NCI-H1694 cell growth in a cell viability assay.

KMS-12-PE = test: cells; conditions: Homo sapiens
Description: SANGER: Inhibition of human KMS-12-PE cell growth in a cell viability assay.

DMS-153 = test: cells; conditions: Homo sapiens
Description: SANGER: Inhibition of human DMS-153 cell growth in a cell viability assay.

NCI-H2171 = test: cells; conditions: Homo sapiens
Description: SANGER: Inhibition of human NCI-H2171 cell growth in a cell viability assay.

NCI-H187 = test: cells; conditions: Homo sapiens
Description: SANGER: Inhibition of human NCI-H187 cell growth in a cell viability assay.

Daudi = test: cells; conditions: Homo sapiens
Description: SANGER: Inhibition of human Daudi cell growth in a cell viability assay.

NCI-H2141 = test: cells; conditions: Homo sapiens
Description: SANGER: Inhibition of human NCI-H2141 cell growth in a cell viability assay.

SR = test: cells; conditions: Homo sapiens
Description: SANGER: Inhibition of human SR cell growth in a cell viability assay.

BC1 cell line = test: SANGER: Inhibition of human BC-1 cell growth in a cell viability assay.
NCI-H2227 = test: cells; conditions: Homo sapiens
Description: SANGER: Inhibition of human NCI-H2227 cell growth in a cell viability assay.

EHEB = test: cells; conditions: Homo sapiens
Description: SANGER: Inhibition of human EHEB cell growth in a cell viability assay.

NCI-H64 = test: cells; conditions: Homo sapiens
Description: SANGER: Inhibition of human NCI-H64 cell growth in a cell viability assay.

ARH-77 = test: cells; conditions: Homo sapiens
Description: SANGER: Inhibition of human ARH-77 cell growth in a cell viability assay.

EB-3 = test: cells; conditions: Homo sapiens
Description: SANGER: Inhibition of human EB-3 cell growth in a cell viability assay.

DG-75 = test: cells; conditions: Homo sapiens
Description: SANGER: Inhibition of human DG-75 cell growth in a cell viability assay.

NCI-H1417 = test: cells; conditions: Homo sapiens
Description: SANGER: Inhibition of human NCI-H1417 cell growth in a cell viability assay.

CAL-148 = test: cells; conditions: Homo sapiens
Description: SANGER: Inhibition of human CAL-148 cell growth in a cell viability assay.

RPMI-6666 = test: cells; conditions: Homo sapiens
Description: SANGER: Inhibition of human RPMI-6666 cell growth in a cell viability assay.

REH = test: cells; conditions: Homo sapiens
Description: SANGER: Inhibition of human REH cell growth in a cell viability assay.

IM-9 = test: SANGER: Inhibition of human IM-9 cell growth in a cell viability assay.
MDA-MB-134-VI = test: cells; conditions: Homo sapiens
Description: SANGER: Inhibition of human MDA-MB-134-VI cell growth in a cell viability assay.

NCI-H748 = test: cells; conditions: Homo sapiens
Description: SANGER: Inhibition of human NCI-H748 cell growth in a cell viability assay.

IST-SL2 = test: cells; conditions: Homo sapiens
Description: SANGER: Inhibition of human IST-SL2 cell growth in a cell viability assay.

IMR-5 = test: cells; conditions: Homo sapiens
Description: SANGER: Inhibition of human IMR-5 cell growth in a cell viability assay.

SK-MM-2 = test: cells; conditions: Homo sapiens
Description: SANGER: Inhibition of human SK-MM-2 cell growth in a cell viability assay.

NCI-H345 = test: cells; conditions: Homo sapiens
Description: SANGER: Inhibition of human NCI-H345 cell growth in a cell viability assay.

ECC4 = test: cells; conditions: Homo sapiens
Description: SANGER: Inhibition of human ECC4 cell growth in a cell viability assay.

SCLC-21H = test: cells; conditions: Homo sapiens
Description: SANGER: Inhibition of human SCLC-21H cell growth in a cell viability assay.

NCCIT = test: SANGER: Inhibition of human NCCIT cell growth in a cell viability assay.
NALM-6 = test: cells; conditions: Homo sapiens
Description: SANGER: Inhibition of human NALM-6 cell growth in a cell viability assay.

LB647-SCLC = test: cells; conditions: Homo sapiens
Description: SANGER: Inhibition of human LB647-SCLC cell growth in a cell viability assay.

NCI-H1882 = test: cells; conditions: Homo sapiens
Description: SANGER: Inhibition of human NCI-H1882 cell growth in a cell viability assay.

MC-CAR = test: cells; conditions: Homo sapiens
Description: SANGER: Inhibition of human MC-CAR cell growth in a cell viability assay.

THP-1 = test: cells; conditions: Homo sapiens
Description: SANGER: Inhibition of human THP-1 cell growth in a cell viability assay.

ST486 = test: SANGER: Inhibition of human ST486 cell growth in a cell viability assay.
K052 = test: cells; conditions: Homo sapiens
Description: SANGER: Inhibition of human K052 cell growth in a cell viability assay.

MOLT-13 = test: cells; conditions: Homo sapiens
Description: SANGER: Inhibition of human MOLT-13 cell growth in a cell viability assay.

## CS(=O)(=O)CCNCc1ccc(-c2ccc3ncnc(Nc4ccc(OCc5cccc(F)c5)c(Cl)c4)c3c2)o1 [LAPATINIB]
NCI-H719
  IC50: > 2 µM
LC-1F
  IC50: 1.38 µM
TUR
  IC50: > 2 µM
NCI-H322M
  IC50: > 2 µM
HCC1599
  IC50: > 2 µM
EB2
  IC50: > 2 µM
LP-1
  IC50: > 2 µM
NCI-H1694
  IC50: > 2 µM
KMS-12-PE
  IC50: > 2 µM
DMS-153
  IC50: > 2 µM
NCI-H2171
  IC50: > 2 µM
NCI-H187
  IC50: > 2 µM
Daudi
  IC50: > 2 µM
NCI-H2141
  IC50: > 2 µM
SR
  IC50: > 2 µM
BC1 cell line
  IC50: > 2 µM
NCI-H2227
  IC50: > 2 µM
EHEB
  IC50: > 2 µM
NCI-H64
  IC50: > 2 µM
ARH-77
  IC50: > 2 µM
EB-3
  IC50: > 2 µM
DG-75
  IC50: > 2 µM
NCI-H1417
  IC50: > 2 µM
CAL-148
  IC50: > 2 µM
RPMI-6666
  IC50: > 2 µM
REH
  IC50: > 2 µM
IM-9
  IC50: > 2 µM
MDA-MB-134-VI
  IC50: > 2 µM
NCI-H748
  IC50: > 2 µM
IST-SL2
  IC50: > 2 µM
IMR-5
  IC50: > 2 µM
SK-MM-2
  IC50: > 2 µM
NCI-H345
  IC50: > 2 µM
ECC4
  IC50: > 2 µM
SCLC-21H
  IC50: > 2 µM
NCCIT
  IC50: > 2 µM
NALM-6
  IC50: > 2 µM
LB647-SCLC
  IC50: > 2 µM
NCI-H1882
  IC50: > 2 µM
MC-CAR
  IC50: > 2 µM
THP-1
  IC50: > 2 µM
ST486
  IC50: > 2 µM

## CN1CCN(CCOc2cc(OC3CCOCC3)c3c(Nc4c(Cl)ccc5c4OCO5)ncnc3c2)CC1 [SARACATINIB]
NCI-H719
  IC50: > 2 µM
LC-1F
  IC50: > 2 µM
TUR
  IC50: > 2 µM
NCI-H322M
  IC50: > 2 µM
HCC1599
  IC50: > 2 µM
EB2
  IC50: > 2 µM
LP-1
  IC50: > 2 µM
NCI-H1694
  IC50: > 2 µM
KMS-12-PE
  IC50: > 2 µM
DMS-153
  IC50: > 2 µM
NCI-H2171
  IC50: > 2 µM
NCI-H187
  IC50: > 2 µM
K052
  IC50: > 2 µM
Daudi
  IC50: > 2 µM
NCI-H2141
  IC50: > 2 µM
SR
  IC50: > 2 µM
BC1 cell line
  IC50: > 2 µM
MOLT-13
  IC50: > 2 µM
EHEB
  IC50: > 2 µM
NCI-H64
  IC50: > 2 µM
ARH-77
  IC50: > 2 µM
EB-3
  IC50: > 2 µM
DG-75
  IC50: > 2 µM
NCI-H1417
  IC50: > 2 µM
CAL-148
  IC50: > 2 µM
RPMI-6666
  IC50: > 2 µM
REH
  IC50: > 2 µM
IM-9
  IC50: > 2 µM
MDA-MB-134-VI
  IC50: > 2 µM
NCI-H748
  IC50: > 2 µM
IST-SL2
  IC50: > 2 µM
IMR-5
  IC50: > 2 µM
SK-MM-2
  IC50: > 2 µM
NCI-H345
  IC50: > 2 µM
ECC4
  IC50: > 2 µM
SCLC-21H
  IC50: > 2 µM
NCCIT
  IC50: 0.732 µM
NALM-6
  IC50: > 2 µM
LB647-SCLC
  IC50: > 2 µM
NCI-H1882
  IC50: > 2 µM
MC-CAR
  IC50: > 2 µM
THP-1
  IC50: > 2 µM
ST486
  IC50: 1.46 µM

Source: ChEMBL document CHEMBL1201861, “Genomics of Drug Sensitity in Cancer screening data, Wellcome Trust Sanger Institute”
